Source: US20120165346A1, “Compounds and their use as BACE inhibitors” (ASTRAZENECA AB, priority 2010, published 2012)

How the values were obtained:
[1] = system: sAPPβ release, SH-SY5Y cells; test: sAPPβ release assay; type: cell-based; details: Homo sapiens, compounds incubated 17 h
Experimental: SH-SY5Y cells were cultured in DMEM/F-12 with Glutamax, 10% FCS and 1% non-essential amino acids and cryopreserved and stored at −140° C. at a concentration of 7.5−9.5×10^6 cells per vial. Thaw cells and seed at a conc. of around 10000 cells/well in DMEM/F-12 with Glutamax, 10% FCS and 1% non-essential amino acids to a 384-well tissue culture treated plate, […] cell susp/well. The cell plates were then incubated for 7-24 h at 37° C., 5% CO2. The cell medium was removed, followed by addition of 30 μL compound diluted in DMEM/F-12 with Glutamax, 10% FCS, 1% non-essential amino acids and 1% PeSt to a final conc. of 1% DMSO. The compounds were incubated with the cells for 17 h (overnight) at 37° C., 5% CO2. Meso Scale Discovery (MSD) plates were used for the detection of sAPPβ release. MSD sAPPβ plates were blocked in 1% BSA in Tris wash buffer (40 μL/well) for 1 h on shake at r.t. and washed 1 time in Tris wash buffer (40 μL/well). 20 μL of medium was transferred to the pre-blocked and washed is MSD sAPPβ microplates, and the cell plates were further used in an ATP assay to measure cytotoxicity. The MSD plates were incubated with shaking at r.t. for 2 h and the media discarded. 10 μL detection antibody was added (1 nM) per well followed by incubation with shaking at r.t. for 2 h and then discarded. 40 μL Read Buffer was added per well and the plates were read in a SECTOR Imager.

[2] = target: T1, human β-Secretase (AA 1-AA 460), sBACE-Fc (Homo sapiens, UniProt P56817); test: Diluted TR-FRET assay; type: biochemical; details: footnote a: diluted FRET assay, 50 times less enzyme, 6.5 h reaction time at r.t.; read-out: IC50 in TR-FRET assay (IC50 from the diluted FRET assay)
T1 construct: soluble part of the human β-Secretase (AA 1-AA 460) was cloned; Fc domain of IgG1; made in house
T1 sequence (P56817 22-460): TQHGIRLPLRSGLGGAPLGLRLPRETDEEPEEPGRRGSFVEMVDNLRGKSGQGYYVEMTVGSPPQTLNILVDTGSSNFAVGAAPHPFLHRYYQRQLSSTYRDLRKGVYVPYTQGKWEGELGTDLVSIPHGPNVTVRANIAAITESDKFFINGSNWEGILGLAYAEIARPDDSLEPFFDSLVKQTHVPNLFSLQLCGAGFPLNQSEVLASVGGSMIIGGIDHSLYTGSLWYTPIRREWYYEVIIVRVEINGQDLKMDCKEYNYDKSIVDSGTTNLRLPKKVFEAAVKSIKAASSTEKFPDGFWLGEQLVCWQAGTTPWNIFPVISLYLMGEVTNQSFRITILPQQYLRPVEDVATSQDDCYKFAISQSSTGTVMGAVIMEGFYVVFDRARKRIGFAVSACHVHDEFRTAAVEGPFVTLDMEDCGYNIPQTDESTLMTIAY
Experimental: The cDNA for the soluble part of the human β-Secretase (AA 1-AA 460) was cloned using the ASP2-Fc10-1-IRES-GFP-neoK mammalian expression vector. The gene was fused to the Fc domain of IgG1 (affinity tag) and stably cloned into HEK 293 cells.
The robotic systems Biomek FX and Velocity 11 were used for all liquid handling and the enzyme and substrate solutions were kept on ice until they were placed in the robotic system. Enzyme (9 μA) was added to the plate then 1 μA of compound in dimethylsulphoxide was added, mixed and pre-incubated for 10 minutes. Substrate (10 μA) was then added, mixed and the reaction proceeded for 15 minutes at r.t. The reaction was stopped with the addition of Stop solution (7 μl, NaAcetate, pH 9). […] The dimethylsulphoxide control, instead of test compound, defined the 100% activity level and 0% activity was defined by wells lacking enzyme (replaced with reaction buffer).

Compound | IC50 [1] | IC50 [2]
CCn1cc(C2(c3cccc(-c4cncc(C#N)c4)c3)N=C(N)c3c(F)cccc32)cc(C)c1=O (centres unmarked) [Example 8, 5-(3-(3-Amino-1-(1-ethyl-5-methyl-6-oxo-1,6-dihydropyridin-3-yl)-4-fluoro-1H-isoindol-1-yl)phenyl)nicotinonitrile] | 2 nM | 8 nM
CCn1cc(C2(c3cccc(-c4cncc(F)c4)c3)N=C(N)c3c(F)cccc32)cc(C)c1=O (centres unmarked) [Example 9, 5-(3-Amino-4-fluoro-1-(3-(5-fluoropyridin-3-yl)phenyl)-1H-isoindol-1-yl)-1-ethyl-3-methylpyridin-2(1H)-one] | 4 nM | 13 nM
CC#Cc1cncc(-c2cccc(C3(c4cc(C(F)F)c(=O)n(CC)c4)N=C(N)c4c(F)cccc43)c2)c1 (centres unmarked) [Example 23, 5-(3-Amino-4-fluoro-1-(3-(5-(prop-1-ynyl)pyridin-3-yl)phenyl)-1H-isoindol-1-yl)-3-(difluoromethyl)-1-ethylpyridin-2(1H)-one] | 4 nM | 6 nM
CC#Cc1ccnc(-c2cccc([C@@]3(c4cc(C)c(=O)n(CC)c4)N=C(N)c4c(F)cccc43)c2)c1 [Example 25, (R)-5-(3-Amino-4-fluoro-1-(3-(4-(prop-1-ynyl)pyridin-2-yl)phenyl)-1H-isoindol-1-yl)-1-ethyl-3-methylpyridin-2(1H)-one] | 2 nM | 5 nM
